Test results as given in US20230346670A1, “Prebiotic Oral Care Compositions and Methods” (Colgate-Palmolive Company, priority 2020, published 2023).
Marks after values point to notes of the source that are not given here.

Legend:
Type in all cases: cell-based
multi-species biofilms = experiment: Organic acid levels in supernatant of multi-species biofilms (ion chromatography); conditions: >0 production, <0 consumption, n = 3
Procedure: (§1) Biofilms are grown vertically on Calcium Deficient Hydroxyapatite (CAD-HA) disks (Hitemco Medical, Old Bethpage, USA) using the Amsterdam Active Adhesion model. Biofilms are allowed to establish during 24 h (37° C., 170 rpm) under microaerophilic conditions (6% O2, 7% CO2, 7% H2, 80% N2). After this 24 h, disks are rinsed 3 times a day for 3 minutes (RT, 250 rpm), for 3 consecutive days, by transferring the lid containing the disks to a new 24-well plate containing 2 mL/well of the appropriate substrate solution. As a negative control, PBS (pH 5.7) without substrate supplementation is used.
Levels of organic acids in the filter sterilized supernatant of the multi-species biofilms are measured using a 761 Compact Ion Chromatograph (Metrhohm, Switzerland) with a Metrosep Organic acids Guard/4.6 guard column. The supernatants from the substrate-treated multi-species biofilms are analyzed to gain more insight into the influence of the substrates on organic acid consumption/production.

[1] = test system: F. nucleatum virulence genes; experiment: Virulence gene expression in multi-species biofilm (SYBR RT-qPCR); conditions: relative to control = 1, 2^-ΔΔCt, n = 3
Procedure: as §1
(§2) The virulence of the substrate-treated multi-species biofilms are evaluated by analyzing the relative expression of 33 genes that are recognized as being related to some form of virulence and from 4 periodontal pathogens.
(§3) Expression of bacterial virulence genes is analyzed through SYBR RT-qPCR and normalized for bacterial housekeeping gene expression. […] These effects are illustrated in Tables 6a and 6b:
Note, for Table 6c, fold changes in virulence gene expression are determined relative to the control condition through the 2^^-ΔΔCt method and are shown as the geometric mean (C.I.) (n = 3) of the 2^^-ΔΔCt values. All substrates are dissolved in PBS at a concentration of 1 M (upper part) or 1%(w/v) (lower part). Values between 0 and 1 represent relative downregulation, values >1 represent relative upregulation. […] NADG: N-acetyl-D-glucosamine; C.I.: 95% confidence interval.

[2] = test system: P. intermedia virulence genes; experiment: as above; conditions: for fold change in DnaJ expression, geometric mean (95% C.I.) / fold change in DnaK expression, geometric mean (95% C.I.) / fold change in ECF expression, geometric mean (95% C.I.) / fold change in GroES expression, geometric mean (95% C.I.) / fold change in HtpG expression, geometric mean (95% C.I.) / fold change in KpsD expression, geometric mean (95% C.I.) / fold change in adpc expression, geometric mean (95% C.I.) / fold change in clpB expression, geometric mean (95% C.I.) / fold change in inpA expression, geometric mean (95% C.I.) / fold change in phg expression, geometric mean (95% C.I.): relative to control = 1
Procedure: as §1, §2, §3
Note, for Table 6d, fold changes in virulence gene expression are determined relatively to the control condition through the 2^^-ΔΔCt method and are shown as the geometric mean (C.I.) (n = 3) of the 2^^-ΔΔCt values. All substrates are dissolved in PBS at a concentration of 1 M (upper part) or 1%(w/v) (lower part). Values between 0 and 1 represent relative downregulation, values >1 represent relative upregulation. […] NADG: N-acetyl-D-glucosamine; C.I.: 95% confidence interval.

[3] = test system: human oral keratinocytes (HOK-18A); experiment: Inflammatory mediator gene expression in keratinocytes exposed to substrate-treated biofilms (SYBR RT-qPCR); conditions: relative to control, n = 3
Procedure: Cultures of immortalized human oral keratinocytes (HOK-18A) are grown. […] The IL-8 levels in the cellular supernatant are determined as well. RNA is converted to cDNA and relative expression of inflammatory mediator genes is determined as described above with respect to the cellular housekeeping gene β-actin.
In HOKs exposed to substrate-treated (substrate concentrations of […]) multi-species biofilms, there are mostly decreases in inflammatory mediator gene expression as measured via SYBR RT-qPCR, the results of which are detailed in Table 7:
Fold changes in inflammatory mediator gene expression from human oral keratinocytes (HOK-18A) exposed to substrate-treated multi-species biofilms are determined relatively to the control through the 2^^-ΔΔCt method and are shown as the geometric mean (C.I.) (n = 3) of the 2^^-ΔΔCt values. All substrates are dissolved in PBS at a concentration of 1 M (upper part) or 1%(w/v) (lower part). Values between 0 and 1 represent relative downregulation, values >1 represent relative upregulation.

[4] = substrate 1 M, listed as D-(+)-trehalose
[5] = lower part of Table 6d, head prints 1 M (lower part 1%(w/v))
[6] = upper part of Table 6d, substrate 1 M, n = 3
[7] = HOK-18A exposed to biofilms treated with substrate 1% (w/v)
[8] = HOK-18A exposed to biofilms treated with substrate 1 M

OC[C@H]1O[C@H](O[C@H]2O[C@H](CO)[C@@H](O)[C@H](O)[C@H]2O)[C@H](O)[C@@H](O)[C@@H]1O [D-trehalose, D-(+)-trehalose]
acetate level in biofilm supernatant, mean ± SD (multi-species biofilms; substrate 1% (w/v)): 303 ± 13 mg/L | butyrate level in biofilm supernatant, mean ± SD (multi-species biofilms; substrate 1% (w/v)): 1945 ± 9 mg/L | formate level in biofilm supernatant, mean ± SD (multi-species biofilms; substrate 1% (w/v)): 3691 ± 89 mg/L | lactate level in biofilm supernatant, mean ± SD (multi-species biofilms; substrate 1% (w/v)): -125 ± 0 mg/L | propionate level in biofilm supernatant, mean ± SD (multi-species biofilms; substrate 1% (w/v)): 1962 ± 8 mg/L | acetate level in biofilm supernatant, mean ± SD (multi-species biofilms; substrate 1 M): 1021 ± 41^∗ mg/L | butyrate level in biofilm supernatant, mean ± SD (multi-species biofilms; substrate 1 M): 0±0^∗ mg/L | formate level in biofilm supernatant, mean ± SD (multi-species biofilms; substrate 1 M): 75 ± 8^∗ mg/L | lactate level in biofilm supernatant, mean ± SD (multi-species biofilms; substrate 1 M): 4187 ± 200^∗ mg/L | propionate level in biofilm supernatant, mean ± SD (multi-species biofilms; substrate 1 M): 1577 ± 46^∗ mg/L | acetate level in biofilm supernatant, mean ± SD (multi-species biofilms; [4]): 1021 ± 73 mg/L | butyrate level in biofilm supernatant, mean ± SD (multi-species biofilms; [4]): 0 ± 0 mg/L | formate level in biofilm supernatant, mean ± SD (multi-species biofilms; [4]): 75 ± 8 mg/L | lactate level in biofilm supernatant, mean ± SD (multi-species biofilms; [4]): 4187 ± 200 mg/L | propionate level in biofilm supernatant, mean ± SD (multi-species biofilms; [4]): 1577 ± 46 mg/L | fold change in ABC transp. perm. (ABC transporter permease) expression, geometric mean (95% C.I.) ([1]; substrate 1% (w/v)): 0.40 (0.15-1.03)^∗ fold | fold change in EF-G expression, geometric mean (95% C.I.) ([1]; substrate 1% (w/v)): 0.12 (0.03-0.55)^∗ fold | fold change in but. -coA transf. (butyrate-acetoacetate CoA-transferase) expression, geometric mean (95% C.I.) ([1]; substrate 1% (w/v)): 0.40 (0.05-3.27) fold | fold change in hemin receptor expression, geometric mean (95% C.I.) ([1]; substrate 1% (w/v)): 0.16 (0.05-0.50)^∗ fold | fold change in hemolysin expression, geometric mean (95% C.I.) ([1]; substrate 1% (w/v)): 0.65 (0.15-2.70) fold | fold change in ompA expression, geometric mean (95% C.I.) ([1]; substrate 1% (w/v)): 0.84 (0.21-3.35) fold | fold change in transposase expression, geometric mean (95% C.I.) ([1]; substrate 1% (w/v)): 1.02 (0.33-3.12) fold | fold change in ABC transp. perm. (ABC transporter permease) expression, geometric mean (95% C.I.) ([1]; substrate 1 M): 32.18 (21.08-49.14)^∗ fold | fold change in EF-G expression, geometric mean (95% C.I.) ([1]; substrate 1 M): 1.18 (0.46-3.02) fold | fold change in but. -coA transf. (butyrate-acetoacetate CoA-transferase) expression, geometric mean (95% C.I.) ([1]; substrate 1 M): 4.28 (1.32-13.86)* fold | fold change in hemin receptor expression, geometric mean (95% C.I.) ([1]; substrate 1 M): 41.19 (20.31-83.52)^∗ fold | fold change in hemolysin expression, geometric mean (95% C.I.) ([1]; substrate 1 M): 12.15 (7.73-19.10)^∗ fold | fold change in ompA expression, geometric mean (95% C.I.) ([1]; substrate 1 M): 1.23 (0.98-1.53) fold | fold change in transposase expression, geometric mean (95% C.I.) ([1]; substrate 1 M): 106.44 (42.35-267.50)^∗ fold | fold change in DnaJ expression, geometric mean (95% C.I.) [2, 5]: 0.62 (0.08-4.67) fold | fold change in DnaK expression, geometric mean (95% C.I.) [2, 5]: 0.78 (0.44-1.36) fold | fold change in ECF expression, geometric mean (95% C.I.) [2, 5]: 0.69 (0.53-0.91) fold | fold change in GroES expression, geometric mean (95% C.I.) [2, 5]: 1.22 (0.61-2.45) fold | fold change in HtpG expression, geometric mean (95% C.I.) [2, 5]: 0.69 (0.42-1.12) fold | fold change in KpsD expression, geometric mean (95% C.I.) [2, 5]: 1.26 (0.52-3.08) fold | fold change in adpc expression, geometric mean (95% C.I.) [2, 5]: 0.64 (0.29-1.4) fold | fold change in clpB expression, geometric mean (95% C.I.) [2, 5]: 1.30 (0.44-3.83) fold | fold change in inpA expression, geometric mean (95% C.I.) [2, 5]: 0.56 (0.31-1.01)^∗ fold | fold change in phg expression, geometric mean (95% C.I.) [2, 5]: 0.86 (0.82-0.89) fold | impact on P. intermedia virulence gene expression ([2]; substrate 1% (w/v)): limited impact | downregulation of P. intermedia virulence gene expression ([2]; substrate 1 M): 5 fold | fold change in DnaJ expression, geometric mean (95% C.I.) [2, 6]: 1.81 (1.21-2.71) fold | fold change in DnaK expression, geometric mean (95% C.I.) [2, 6]: 8.82 (6.83-11.38)^∗ fold | fold change in ECF expression, geometric mean (95% C.I.) [2, 6]: 6.97 (1.65-29.40)^∗ fold | fold change in GroES expression, geometric mean (95% C.I.) [2, 6]: 11.52 (2.46-53.90)^∗ fold | fold change in HtpG expression, geometric mean (95% C.I.) [2, 6]: 0.67 (0.43-1.03) fold | fold change in KpsD expression, geometric mean (95% C.I.) [2, 6]: 0.59 (0.47-0.75) fold | fold change in adpc expression, geometric mean (95% C.I.) [2, 6]: 1.45 (0.76-2.77) fold | fold change in clpB expression, geometric mean (95% C.I.) [2, 6]: 1.90 (0.77-4.68) fold | fold change in inpA expression, geometric mean (95% C.I.) [2, 6]: 0.81 (0.41-1.63) fold | fold change in phg expression, geometric mean (95% C.I.) [2, 6]: 0.20 (0.14-0.29)^∗ fold | fold change in IL-1β gene expression, geometric mean (C.I.) [3, 7]: 1.06 (0.55-2.06) fold | fold change in IL-6 gene expression, geometric mean (C.I.) [3, 7]: 1.00 (0.46-2.17) fold | fold change in IL-8 gene expression, geometric mean (C.I.) [3, 7]: 1.32 (0.89-1.94)^∗ fold | fold change in MMP-8 gene expression, geometric mean (C.I.) [3, 7]: 0.66 (0.46-0.93) fold | fold change in TNF-α gene expression, geometric mean (C.I.) [3, 7]: 0.94 (0.54-1.64) fold | fold change in IL-1β gene expression, geometric mean (C.I.) [3, 8]: 0.79 (0.45-1.38) fold | fold change in IL-6 gene expression, geometric mean (C.I.) [3, 8]: 1.27 (0.11-14.86) fold | fold change in IL-8 gene expression, geometric mean (C.I.) [3, 8]: 0.22 (0.15-0.34)^∗ fold | fold change in MMP-8 gene expression, geometric mean (C.I.) [3, 8]: 0.81 (0.68-0.95) fold | fold change in TNF-α gene expression, geometric mean (C.I.) [3, 8]: 0.66 (0.41-1.06)^∗ fold
